From ChEMBL document CHEMBL5576043, “Synthesis, radiosynthesis and biochemical evaluation of fluorinated analogues of sphingosine-1-phosphate receptor 3 specific antagonists using PET” (Bioorg Med Chem, 2024)

Key:
[1] = Drug uptake in C57/BL6 mouse brain at 5 MBq, iv administered as bolus injection and measured at 90 min by PET imaging analysis; assay type: ADME, organism-based; conditions: in vivo, 1.5 h
[2] = Drug uptake in C57/BL6 mouse intestine at 5 MBq, iv administered as bolus injection and measured at 15 to 90 mins by imaging analysis; assay type: ADME, organism-based; conditions: in vivo, time 15-90 min
[3] = Retention time of compound by radio-HPLC analysis; assay type: physicochemical
[4] = Drug metabolism in formulated solution assessed as 4-[18F]fluoroaniline metabolite formation by measuring retention time after 180 mins by radio-HPLC analysis; assay type: ADME; conditions: 3 h
[5] = Drug uptake in C57/BL6 mouse blood at 5 MBq, iv administered as bolus injection and measured after 90 mins by PET imaging analysis; assay type: ADME, organism-based; conditions: in vivo, 1.5 h
[6] = 1-Octanol/PBS partition coefficient, logD of the compound at pH 7.4 incubated for 3 mins; assay type: physicochemical
[7] = Drug metabolism in formulated solution assessed as decomposition mediated metabolite formation by measuring retention time after 180 mins by radio-HPLC analysis; assay type: ADME; conditions: 3 h
[8] = Drug uptake in C57/BL6 mouse kidney at 5 MBq, iv administered as bolus injection and measured for 90 mins by imaging analysis; assay type: ADME, organism-based; conditions: in vivo, 1.5 h
[9] = Drug accumulation in C57/BL6 mouse spleen at 5 MBq, iv administered as bolus injection and measured at 15 to 90 mins by imaging analysis; assay type: ADME, organism-based; conditions: in vivo, time 15-90 min
[10] = Drug uptake in C57/BL6 mouse lung at 5 MBq, iv administered as bolus injection and measured at 12 sec by PET imaging analysis; assay type: ADME, organism-based; conditions: in vivo, 12 s
[11] = Drug uptake in C57/BL6 mouse blood at 5 MBq, iv administered as bolus injection and measured at 12 sec by PET imaging analysis; assay type: ADME, organism-based; conditions: in vivo, 12 s
[12] = Drug accumulation in C57/BL6 mouse spleen at 5 MBq, iv administered as bolus injection and measured at 6 to 15 mins by imaging analysis; assay type: ADME, organism-based; conditions: in vivo, time 6-15 min
[13] = Drug metabolism in human serum assessed as decomposition mediated metabolite formation measured after 90 mins by radio-HPLC analysis; assay type: ADME, cell-free; conditions: 1.5 h
[14] = Drug uptake in C57/BL6 mouse heart at 5 MBq, iv administered as bolus injection and measured at 24 sec by PET imaging analysis; assay type: ADME, organism-based; conditions: in vivo, 24 s
[15] = Drug uptake in C57/BL6 mouse urinary bladder at 5 MBq, iv administered as bolus injection and measured for 90 mins by imaging analysis; assay type: ADME, organism-based; conditions: in vivo, 1.5 h
[16] = Drug uptake in C57/BL6 mouse heart at 5 MBq, iv administered as bolus injection and measured at 4.2 min by PET imaging analysis; assay type: ADME, organism-based; conditions: in vivo, 0.07 h
[17] = Drug metabolism in mouse serum assessed as decomposition mediated metabolite formation at 37 degreeC measured after 10 to 90 mins by radio-HPLC analysis; assay type: ADME, cell-free; conditions: time 10-90 min
[18] = Drug accumulation in C57/BL6 mouse heart at 5 MBq, iv administered as bolus injection and measured at 6 to 15 mins by imaging analysis; assay type: ADME, organism-based; conditions: in vivo, time 6-15 min
[19] = Drug uptake in C57/BL6 mouse liver at 5 MBq, iv administered as bolus injection and measured at 90 min by PET imaging analysis; assay type: ADME, organism-based; conditions: in vivo, 1.5 h
[20] = Drug uptake in C57/BL6 mouse lung at 5 MBq, iv administered as bolus injection and measured within 4.5 min by PET imaging analysis; assay type: ADME, organism-based; conditions: in vivo, 0.075 h
[21] = Drug uptake in C57/BL6 mouse heart at 5 MBq, iv administered as bolus injection and measured at 90 min by PET imaging analysis; assay type: ADME, organism-based; conditions: in vivo, 1.5 h
[22] = Stability in mouse serum measured after 90 mins by radio-HPLC analysis; assay type: ADME, cell-free; conditions: 1.5 h
[23] = Drug uptake in C57/BL6 mouse blood at 5 MBq, iv administered as bolus injection and measured within 24 sec by PET imaging analysis; assay type: ADME, organism-based; conditions: in vivo, 24 s
[24] = Drug uptake in C57/BL6 mouse spleen at 5 MBq, iv administered as bolus injection and measured within 4.5 min by PET imaging analysis; assay type: ADME, organism-based; conditions: in vivo, 0.075 h
[25] = Drug uptake in C57/BL6 mouse kidney at 5 MBq, iv administered as bolus injection and measured at 90 min by PET imaging analysis; assay type: ADME, organism-based; conditions: in vivo, 1.5 h
[26] = Drug accumulation in C57/BL6 mouse heart at 5 MBq, iv administered as bolus injection and measured at 15 to 90 mins by imaging analysis; assay type: ADME, organism-based; conditions: in vivo, time 15-90 min
[27] = Drug uptake in C57/BL6 mouse muscle tissue at 5 MBq, iv administered as bolus injection and measured at 60 min by PET imaging analysis; assay type: ADME, organism-based; conditions: in vivo, 1 h
[28] = Drug uptake in C57/BL6 mouse kidney at 5 MBq, iv administered as bolus injection and measured at 1.2 min by PET imaging analysis; assay type: ADME, organism-based; conditions: in vivo, 0.02 h
[29] = Drug uptake in C57/BL6 mouse heart at 5 MBq, iv administered as bolus injection and measured at 14.2 min by PET imaging analysis; assay type: ADME, organism-based; conditions: in vivo, 0.2367 h
[30] = Drug uptake in C57/BL6 mouse liver at 5 MBq, iv administered as bolus injection and measured at ~5 min by PET imaging analysis; assay type: ADME, organism-based; conditions: in vivo
[31] = Drug accumulation in C57/BL6 mouse liver at 5 MBq, iv administered as bolus injection and measured upto 15 mins by imaging analysis; assay type: ADME, organism-based; conditions: in vivo, 0.25 h
[32] = Drug uptake in C57/BL6 mouse spleen at 5 MBq, iv administered as bolus injection and measured after 90 min by PET imaging analysis; assay type: ADME, organism-based; conditions: in vivo, 1.5 h
[33] = Drug uptake in C57/BL6 mouse lymph node at 5 MBq, iv administered as bolus injection and measured at 60 min by PET imaging analysis; assay type: ADME, organism-based; conditions: in vivo, 1 h
[34] = Drug accumulation in C57/BL6 mouse lungs at 5 MBq, iv administered as bolus injection and measured at 0 to 5 mins by imaging analysis; assay type: ADME, organism-based, Lung; conditions: in vivo, time 0-5 min

Q: With `CC(C)(C)C(=O)/C(=N\Nc1ccc(Cl)cc1)Nc1ccc([18F])cc1` as the compound, how does the Drug uptake [1] read?
A: Its Drug uptake is 3.9 %ID/cm3.

Q: What about the Drug uptake [2] of the same compound?
A: The Drug uptake was “Active”.

Q: And the Retention_time [3]?
A: The Retention_time was 15.9 min.

Q: What about the Retention_time [4] of the same compound?
A: Its Retention_time is 4.5 min.

Q: What about the Drug uptake [5] of the same compound?
A: The Drug uptake was “Not Active”.

Q: What about the logD at 0.05 h [6] of the same compound?
A: The logD at 0.05 h was 1.55.

Q: What about the Retention_time [7] of the same compound?
A: The Retention_time was 16.9 min.

Q: And the Drug uptake [8]?
A: The Drug uptake was “Not Active”.

Q: And the Drug uptake [9]?
A: The Drug uptake was “Not Active”.

Q: And the Drug uptake [10]?
A: Its Drug uptake is 13 %ID/cm3.

Q: And the Drug uptake [11]?
A: Its Drug uptake is 37.5 %ID/cm3.

Q: And the Drug uptake [12]?
A: Its Drug uptake is “Active”.

Q: What about the Drug metabolism [13] of the same compound?
A: The Drug metabolism was ~ 7%.

Q: And the Drug uptake [14]?
A: Its Drug uptake is 7 %ID/cm3.

Q: And the Drug uptake [15]?
A: Its Drug uptake is “Not Active”.

Q: And the Drug uptake [16]?
A: The Drug uptake was 5 %ID/cm3.

Q: What about the Drug metabolism [17] of the same compound?
A: The Drug metabolism was “Metabolite_Detected”.

Q: And the Drug uptake [18]?
A: Its Drug uptake is “Active”.

Q: What about the Drug uptake [19] of the same compound?
A: Its Drug uptake is 10 %ID/cm3.

Q: And the Drug uptake [20]?
A: Its Drug uptake is “Not Active”.

Q: And the Drug uptake [21]?
A: Its Drug uptake is 3 %ID/cm3.

Q: And the Stability [22]?
A: Its Stability is “Stable”.

Q: And the Drug uptake [23]?
A: The Drug uptake was “Not Active”.

Q: What about the Drug uptake [24] of the same compound?
A: The Drug uptake was 11 %ID/cm3.

Q: What about the Drug uptake [25] of the same compound?
A: The Drug uptake was 4 %ID/cm3.

Q: And the Drug uptake [26]?
A: Its Drug uptake is “Not Active”.

Q: And the Drug uptake [27]?
A: Its Drug uptake is 1.9 %ID/cm3.

Q: And the Drug uptake [28]?
A: Its Drug uptake is 8 %ID/cm3.

Q: And the Drug uptake [29]?
A: The Drug uptake was 6 %ID/cm3.

Q: And the Drug uptake [30]?
A: The Drug uptake was 41 %ID/cm3.

Q: What about the Drug uptake [31] of the same compound?
A: The Drug uptake was “Active”.

Q: And the Drug uptake [32]?
A: Its Drug uptake is 3 %ID/cm3.

Q: And the Drug uptake [33]?
A: Its Drug uptake is 2.1 %ID/cm3.

Q: What about the Drug uptake [34] of the same compound?
A: Its Drug uptake is “Active”.
